The target of series [1] is T1, hSK3 channels (Homo sapiens, UniProt Q9UGI6).
T1 construct: expressed in transfected cells; host or cells: HEK293
Nature of the series: Whole-cell patch-clamp recording of ionic current through SK channels (subtype 3) in HEK293 cells expressing hSK3. Type of series: cell-based. As to conditions: baseline current at -75 mV, free Ca2+ 0.3-0.4 μM, room temperature. As for the experimental part: The ionic current through small-conductance Ca^2+-activated K^+ channels (SK channels, subtype 3) is recorded using the whole-cell configuration of the patch-clamp technique.
HEK293 tissue culture cells expressing hSK3 channels were grown in DMEM (Dulbecco's Modified Eagle Medium) supplemented with 10% FCS (foetal calf serum) at 37° C. in 5% CO2. At 60-80% confluency, cells were harvested by trypsin treatment and seeded on cover slips.
Experiments are carried out a patch-clamp set-up. Cells plated on coverslips are placed in a 15 μl perfusion chamber (flowrate ˜1 ml/min) mounted on an inverted microscope placed on a vibration-free table in a grounded Faraday cage. All experiments are performed at room temperature (20-22° C.). […] Data are stored directly on the hard-disk and analysed by IGOR software (Wavemetrics, Lake Oswega, Oreg., USA).
The whole-cell configuration of the patch-clamp technique is applied. […] Cell capacitance is electronically compensated and the resistance between the pipette and the cell interior (the series resistance, Rs) is measured and compensated for. […]
The intracellular (pipette) solution contained: 154 mM KCl, 10 mM HEPES, 10 mM EGTA. Concentrations of CaCl2 and MgCl2 needed to obtain the desired free concentrations of Ca^2+ (0.3-0.4 μM, Mg^2+ always 1 mM) were calculated by EqCal software (Cambridge, UK) and added. […]
In general terms: In patch-clamp work, channel activity is measured electrically.

Take `Cc1cc(Nc2ccc(Cl)cc2)nc(-n2cc3ccccc3n2)n1` [Compound A1, (4-Chloro-phenyl)-(2-indazol-2-yl-6-methyl-pyrimidin-4-yl)-amine]: the melting point – broadly, the temperature, or range, at which the solid turns liquid – lay in the range of 224.7 to 226.7 °C. Moreover, the “SC100 (Stimulating Concentration required for increasing the baseline current by 100%)” value in series [1] stood at 0.08 µM.

On to `Clc1ccc(Nc2cncc(-n3cc4ccccc4n3)n2)cc1` [Compound D1, (4-Chloro-phenyl)-(6-indazol-2-yl-pyrazin-2-yl)-amine], for which the melting point fell in the range of 249 to 252 °C.

Turning to `c1ccc2c(c1)cnn2-c1nc(NC2CCCCC2)c2ccccc2n1` [Compound A3, Cyclohexyl-(2-indazol-1-yl-quinazolin-4-yl)-amine], the melting point is 278.1 to 281.4 °C.

For the origin of these results see patent US8222262B2, “Indazolyl derivatives useful as potassium channel modulating agents” (Neurosearch A/S, priority 2006, dated 2012).
